According to publication PMC7591571, “Identification of a juvenile-hormone signaling inhibitor via high-throughput screening of a chemical library” (Scientific Reports, 2020):

Legend:
[1] = system: T1, JH receptor, methoprene-tolerant protein (Met) / SRC, endogenous in BmN_JF&AR cells; assay: kJHRE luciferase reporter assay in stable BmN_JF&AR cells; assay type: cell-based; settings: agonist, 25 °C, 20 h, pathway read-out
T1 construct: gene Met1; endogenous receptor of BmN cells; receptor not overexpressed; Met paralogue not specified

[2] = system: T1, JH receptor, methoprene-tolerant protein (Met) / SRC, endogenous in BmN_JF&AR cells; assay: as above; assay type: cell-based; settings: inhibition of 1 nM JH I response; 25 °C; 20 h; competitive antagonist-like; pathway read-out, direct binding to receptor not demonstrated; read-out: EC50 (the source's name)

CC/C(=C\CC/C(C)=C/C(=O)OC)CC[C@H]1O[C@@]1(C)CC [JH I]
EC50 [1]: 0.37 nM

CC(C)(C)c1ccc(OCCn2cncn2)c(Cl)c1 [JHSI48, N-[2-(4-tert-butyl-2-chlorophenoxy)ethyl]-1H-1,2,4-triazole]
IC50 [2]: 320 nM
